SMILES strings stand for the structures. Some results are limits rather than exact numbers.

The assay addresses T1, ASK1/MAP3K5 (Homo sapiens, UniProt Q99683).
T1 construct: purchased Reaction Biology Corp. (Malvern, Pa.)
T1 sequence (Q99683 1-1374): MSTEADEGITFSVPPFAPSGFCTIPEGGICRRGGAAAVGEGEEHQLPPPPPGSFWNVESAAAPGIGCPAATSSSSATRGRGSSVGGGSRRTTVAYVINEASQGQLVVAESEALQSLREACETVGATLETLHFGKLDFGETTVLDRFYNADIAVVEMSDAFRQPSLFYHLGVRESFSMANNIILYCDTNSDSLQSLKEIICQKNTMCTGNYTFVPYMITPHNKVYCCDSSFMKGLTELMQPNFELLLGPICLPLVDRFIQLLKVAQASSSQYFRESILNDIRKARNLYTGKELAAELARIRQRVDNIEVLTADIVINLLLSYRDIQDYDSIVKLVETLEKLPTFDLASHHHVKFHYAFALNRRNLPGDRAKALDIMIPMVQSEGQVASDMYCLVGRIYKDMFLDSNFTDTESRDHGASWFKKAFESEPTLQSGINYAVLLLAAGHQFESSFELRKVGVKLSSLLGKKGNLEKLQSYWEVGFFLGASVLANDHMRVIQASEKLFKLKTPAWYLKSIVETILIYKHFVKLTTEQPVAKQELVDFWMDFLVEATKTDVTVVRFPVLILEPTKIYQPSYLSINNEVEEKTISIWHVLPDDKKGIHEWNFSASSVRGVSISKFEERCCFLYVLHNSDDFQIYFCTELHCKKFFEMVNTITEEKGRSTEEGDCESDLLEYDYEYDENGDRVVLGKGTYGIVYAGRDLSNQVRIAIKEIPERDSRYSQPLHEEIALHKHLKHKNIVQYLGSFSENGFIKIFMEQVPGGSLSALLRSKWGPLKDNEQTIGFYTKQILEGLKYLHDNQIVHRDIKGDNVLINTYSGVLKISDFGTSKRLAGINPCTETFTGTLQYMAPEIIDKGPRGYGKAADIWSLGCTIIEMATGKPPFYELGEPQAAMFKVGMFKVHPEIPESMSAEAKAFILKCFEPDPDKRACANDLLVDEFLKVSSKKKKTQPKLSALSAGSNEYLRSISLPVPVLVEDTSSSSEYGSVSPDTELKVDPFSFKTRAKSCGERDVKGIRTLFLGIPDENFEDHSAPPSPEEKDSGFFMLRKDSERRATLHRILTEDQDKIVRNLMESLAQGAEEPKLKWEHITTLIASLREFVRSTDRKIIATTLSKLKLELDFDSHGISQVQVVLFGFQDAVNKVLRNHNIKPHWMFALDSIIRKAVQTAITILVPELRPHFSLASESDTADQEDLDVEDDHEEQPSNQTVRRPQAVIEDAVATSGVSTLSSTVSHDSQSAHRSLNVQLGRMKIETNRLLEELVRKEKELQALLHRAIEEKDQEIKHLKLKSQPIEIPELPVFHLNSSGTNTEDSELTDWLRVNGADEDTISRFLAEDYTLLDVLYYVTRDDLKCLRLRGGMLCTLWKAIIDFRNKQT
As to the kind of experiment: ASK1 enzyme assay (ASK1/MAP3K5 assay by Reaction Biology Corp., 33P-ATP filter-binding). Format: biochemical. The settings on record: 20 μM myelin basic protein and 10 μM ATP; class symbols. A digest of the protocol:
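Human ASK1/MAP3K5 in pH 7.5 Hepes buffer with 20 μM myelin basic protein and 10 μM 33P-ATP; compounds preincubated with kinase 20 min at room temperature. Reaction ran 2 h at room temperature; substrate phosphorylation measured by P81 filter binding.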
Molecule `C[C@H]1CCCOc2ncc(Br)cc2C(=O)Nc2cccc(n2)-c2nncn21` (single isomer, unassigned) [Compound 1] showed an IC50 of no more than 100 nM.

The molecule `C[C@H]1CCCOc2ncc(C#N)cc2C(=O)Nc2cccc(n2)-c2nncn21` [Compound 38, (S)-10-Methyl-4-oxo-1^4H-6-oxa-3-aza-2(2,6),5(3,2)-dipyridina-1(3,4)-triazolacyclodecaphane-5^5-carbonitrile] showed an IC50 of no more than 100 nM.

In turn, `C[C@H]1CCCOc2ncc(C(F)(F)F)cc2C(=O)Nc2cccc(n2)-c2nncn21` (single isomer, unassigned) [Compound 41] returned an IC50 of no more than 100 nM.

Consider `C[C@H]1CCCOc2ncc(-c3ccncc3)cc2C(=O)Nc2cccc(n2)-c2nncn21` [Compound 17, (S)-10-Methyl-5^5-(pyridin-4-yl)-1^4H-6-oxa-3-aza-2(2,6),5(3,2)-dipyridina-1(3,4)-triazolacyclodecaphan-4-one], for which the IC50 is no more than 100 nM.

Regarding `C[C@H]1CCCOc2ncccc2C(=O)Nc2cccc(n2)-c2nncn21` (single isomer, unassigned) [Compound 4], the concentration for half-maximal inhibition (IC50) is no more than 100 nM.

For the origin of these results see patent publication US11897898B2, “Pyridine macrocycle compounds as ASK1 inhibiting agents” (BIOGEN MA INC., priority 2018, dated 2024).
